Data taken from PubChem BioAssay AID330 (DTP/NCI, 2004).
Several values for one entry are separate records, joined by “and”; a condition that tells them apart may be missing. Equal values may be shown once. Inconclusive results and toxic doses are left out.

Test system: P388 leukemia ip, CD2F1 mice, survival T/C
Assay: NCI In Vivo Anticancer Drug Screen. Data for tumor model P388 Leukemia (intraperitoneal) in CD2F1 (CDF1) mice
Details: endpoint: median survival time, higher = longer survival
How it was run: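 Mice carrying the transplanted tumor received test compound or vehicle. Survival was recorded in each group, and the value is the treated-group measurement divided by that of the vehicle-treated control group.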

[1] = dose: 50.0 mg/kg/injection, schedule: Q01DX005 (ip), vehicle: Klucel (hydroxypropylcellulose) (HPC)
[2] = dose: 100.0 mg/kg/injection, schedule: Q01DX005 (ip), vehicle: Klucel (hydroxypropylcellulose) (HPC)
[3] = dose: 200.0 mg/kg/injection, schedule: Q01DX005 (ip), vehicle: Klucel (hydroxypropylcellulose) (HPC)
[4] = dose: 100.0 mg/kg/injection, schedule: Q04DX003 (ip), vehicle: saline
[5] = dose: 200.0 mg/kg/injection, schedule: Q04DX003 (ip), vehicle: saline
[6] = dose: 400.0 mg/kg/injection, schedule: Q04DX003 (ip), vehicle: saline
[7] = dose: 12.5 mg/kg/injection, schedule: Q01DX009 (ip), vehicle: saline with Tween-80
[8] = dose: 25.0 mg/kg/injection, schedule: Q01DX009 (ip), vehicle: saline with Tween-80
[9] = dose: 50.0 mg/kg/injection, schedule: Q01DX009 (ip), vehicle: saline with Tween-80
[10] = dose: 100.0 mg/kg/injection, schedule: Q01DX009 (ip), vehicle: saline with Tween-80
[11] = dose: 50.0 mg/kg/injection, schedule: Q01DX005 (ip), vehicle: saline with Tween-80
[12] = dose: 100.0 mg/kg/injection, schedule: Q01DX005 (ip), vehicle: saline with Tween-80
[13] = dose: 200.0 mg/kg/injection, schedule: Q01DX005 (ip), vehicle: saline with Tween-80
[14] = dose: 50.0 mg/kg/injection, schedule: Q01DX009 (ip), vehicle: Klucel (hydroxypropylcellulose) (HPC)
[15] = dose: 100.0 mg/kg/injection, schedule: Q01DX009 (ip), vehicle: Klucel (hydroxypropylcellulose) (HPC)
[16] = dose: 200.0 mg/kg/injection, schedule: Q01DX009 (ip), vehicle: Klucel (hydroxypropylcellulose) (HPC)
[17] = dose: 25.0 mg/kg/injection, schedule: Q01DX005 (ip), vehicle: Klucel (hydroxypropylcellulose) (HPC)
[18] = dose: 120.0 mg/kg/injection, schedule: Q01DX005 (ip), vehicle: saline with Tween-80
[19] = dose: 60.0 mg/kg/injection, schedule: Q01DX005 (ip), vehicle: saline
[20] = dose: 120.0 mg/kg/injection, schedule: Q01DX005 (ip), vehicle: saline

Compound: O=C1c2ccccc2C2(O)C3C=CCCN3CN12 (stereo not drawn)
- T/C [1]: 101 % of control
- T/C [2]: 100 % of control
- T/C [3]: 100 % of control

Compound: CNC1C(=O)C(C)C(O)(C(CC(C)C(O)/C=C/C=C/CNC(=O)C(C)(C)C(O)\C(C)=C/C=C\C=C\Cc2cnc(C)o2)OC)C12C(=O)OC2COC (stereo not drawn) (tested in a mixture with another compound)
- T/C (dose: 1.0 mg/kg/injection, schedule: Q01DX005 (ip), vehicle: DMSO): 104 % of control
- T/C (dose: 2.0 mg/kg/injection, schedule: Q01DX005 (ip), vehicle: DMSO): 93 % of control

Compound: CCCCCCCCCCCCS(=O)(=O)CCC(=O)c1ccco1
- T/C [4]: 99 % of control
- T/C [5]: 99 % of control
- T/C [6]: 97 % of control

Compound: COc1cccc2c1C(=O)c1c(O)c3c(c(O)c1C2=O)CC(O)(C(C)=O)CC3OC1CC(NC(=O)C(CCCCN)NC(=O)C2CCCN2)C(O)C(C)O1 (stereo not drawn)
- T/C (dose: 2.5 mg/kg/injection, schedule: Q04DX003 (ip), vehicle: water): 93 % of control
- T/C (dose: 5.0 mg/kg/injection, schedule: Q04DX003 (ip), vehicle: water): 98 % of control
- T/C (dose: 10.0 mg/kg/injection, schedule: Q04DX003 (ip), vehicle: water): 99 % of control and 109 % of control
- T/C (dose: 20.0 mg/kg/injection, schedule: Q04DX003 (ip), vehicle: water): 110 % of control and 118 % of control
- T/C (dose: 40.0 mg/kg/injection, schedule: Q04DX003 (ip), vehicle: water): 121 % of control and 123 % of control
- T/C (dose: 80.0 mg/kg/injection, schedule: Q04DX003 (ip), vehicle: water): 166 % of control

Compound: Cc1ccc(/C=N/NC(N)=S)s1
- T/C [7]: 100 % of control
- T/C [8]: 108 % of control
- T/C [9]: 107 % of control
- T/C [10]: 106 % of control

Compound: NC(COC(=O)c1ccccc1)C(=O)O (stereo not drawn)
- T/C [11]: 100 % of control
- T/C [12]: 98 % of control
- T/C [13]: 93 % of control

Compound: CCOC(=O)c1ccc(NCC#N)cc1
- T/C (dose: 100.0 mg/kg/injection, schedule: Q04DX003 (ip), vehicle: saline with Tween-80): 100 % of control
- T/C (dose: 200.0 mg/kg/injection, schedule: Q04DX003 (ip), vehicle: saline with Tween-80): 100 % of control
- T/C (dose: 400.0 mg/kg/injection, schedule: Q04DX003 (ip), vehicle: saline with Tween-80): 100 % of control

Compound: CCCC(OC(C)=O)C(C)[N+](=O)[O-] (stereo not drawn)
- T/C [7]: 91 % of control
- T/C [8]: 100 % of control
- T/C [9]: 102 % of control
- T/C [10]: 104 % of control
- T/C (dose: 200.0 mg/kg/injection, schedule: Q01DX009 (ip), vehicle: saline with Tween-80): 112 % of control

Compound: CCCCCCCNN=NCC(C)C(C)CC (stereo not drawn)
- T/C [4]: 95 % of control
- T/C [5]: 95 % of control
- T/C [6]: 97 % of control

Compound: O=C(O)c1ccc(N2C(=O)C3C4CCC(O4)C3C2=O)cc1 (stereo not drawn)
- T/C (dose: 6.25 mg/kg/injection, schedule: Q01DX005 (ip), vehicle: saline with Tween-80): 101 % of control
- T/C (dose: 12.5 mg/kg/injection, schedule: Q01DX005 (ip), vehicle: saline with Tween-80): 101 % of control

Compound: Cc1ccccc1C1C(C#N)C(=O)NC(=O)C1C#N (stereo not drawn)
- T/C [14]: 102 % of control
- T/C [15]: 106 % of control
- T/C [16]: 110 % of control

Compound: C#CC(C)(C)Oc1ccc2c(=O)c(-c3ccc(OC)cc3)coc2c1
- T/C [11]: 94 % of control
- T/C [12]: 89 % of control

Compound: Cc1ccc(S(=O)(=O)N/N=C/c2ccc(O)c(S(=O)(=O)O)c2)cc1
- T/C (dose: 12.5 mg/kg/injection, schedule: Q01DX009 (ip), vehicle: water): 97 % of control
- T/C (dose: 25.0 mg/kg/injection, schedule: Q01DX009 (ip), vehicle: water): 101 % of control
- T/C (dose: 50.0 mg/kg/injection, schedule: Q01DX009 (ip), vehicle: water): 101 % of control
- T/C (dose: 100.0 mg/kg/injection, schedule: Q01DX009 (ip), vehicle: water): 110 % of control
- T/C (dose: 200.0 mg/kg/injection, schedule: Q01DX009 (ip), vehicle: water): 99 % of control

Compound: CC(O)COc1ccccc1P(c1ccccc1)c1ccccc1 (stereo not drawn)
- T/C [17]: 104 % of control and 95 % of control
- T/C [1]: 104 % of control and 109 % of control and 97 % of control
- T/C [2]: 101 % of control and 109 % of control and 91 % of control
- T/C [3]: 104 % of control and 92 % of control

Compound: CCc1nc(N)nc(N)c1-c1ccc(OC)c([N+](=O)[O-])c1
- T/C [18]: 151 % of control and 189 % of control
- T/C (dose: 480.0 mg/kg/injection, schedule: Q01DX005 (ip), vehicle: saline with Tween-80): 90 % of control

Compound: CCOC(=O)CC1=NC(=Nc2ccc(Cl)c(Cl)c2)SC1
- T/C [11]: 103 % of control
- T/C [12]: 104 % of control
- T/C [13]: 100 % of control

Compound: CCC(=O)C(=O)c1ccc(O)cc1O
- T/C [14]: 108 % of control
- T/C [15]: 108 % of control
- T/C [16]: 105 % of control

Compound: CCOC(=O)c1cnc2c(OC)cccc2c1Nc1ccc2c(c1)OCO2
- T/C (dose: 60.0 mg/kg/injection, schedule: Q01DX005 (ip), vehicle: Klucel (hydroxypropylcellulose) (HPC)): 101 % of control
- T/C (dose: 120.0 mg/kg/injection, schedule: Q01DX005 (ip), vehicle: Klucel (hydroxypropylcellulose) (HPC)): 97 % of control
- T/C (dose: 240.0 mg/kg/injection, schedule: Q01DX005 (ip), vehicle: Klucel (hydroxypropylcellulose) (HPC)): 96 % of control

Compound: [CH3][Sn]([CH3])([S]CCS(=O)(=O)O)[S]CCS(=O)(=O)O
- T/C (dose: 15.0 mg/kg/injection, schedule: Q01DX005 (ip), vehicle: saline): 120 % of control
- T/C (dose: 30.0 mg/kg/injection, schedule: Q01DX005 (ip), vehicle: saline): 98 % of control
- T/C [19]: 107 % of control
- T/C [20]: 121 % of control

Compound: C=CCOC(CCC)OCC=C
- T/C [14]: 97 % of control
- T/C [15]: 97 % of control

Compound: CSc1sc(C#N)c(N)c1N=Cc1ccccc1
- T/C (dose: 12.5 mg/kg/injection, schedule: Q04DX002 (ip), vehicle: saline with Tween-80): 106 % of control
- T/C (dose: 25.0 mg/kg/injection, schedule: Q04DX002 (ip), vehicle: saline with Tween-80): 101 % of control
- T/C (dose: 50.0 mg/kg/injection, schedule: Q04DX002 (ip), vehicle: saline with Tween-80): 97 % of control

Compound: NC(=NCc1ccncc1)N/N=C\c1ccnc2ccccc12
- T/C [19]: 107 % of control
- T/C [20]: 106 % of control

Compound: COc1ccc2c(c1)C(Cc1ccc(Oc3cc(CC4c5cc(OC)ccc5CC[N+]4(C)C)ccc3OC)cc1)[N+](C)(C)CC2 (stereo not drawn)
- T/C (dose: 1.56 mg/kg/injection, schedule: Q04DX003 (ip), vehicle: water): 106 % of control
- T/C (dose: 3.13 mg/kg/injection, schedule: Q04DX003 (ip), vehicle: water): 102 % of control

Compound: CC(C)Cn1c(Cl)c(C=O)c2ccccc21
- T/C (dose: 100.0 mg/kg/injection, schedule: Q04DX002 (ip), vehicle: Klucel (hydroxypropylcellulose) (HPC)): 101 % of control
- T/C (dose: 200.0 mg/kg/injection, schedule: Q04DX002 (ip), vehicle: Klucel (hydroxypropylcellulose) (HPC)): 97 % of control
- T/C (dose: 400.0 mg/kg/injection, schedule: Q04DX002 (ip), vehicle: Klucel (hydroxypropylcellulose) (HPC)): 90 % of control

Compound: CC(=NCCCCN=C(C)c1cc(C)cc(Br)c1O)c1cc(C)cc(Br)c1O
- T/C [17]: 100 % of control
- T/C [1]: 96 % of control
- T/C [2]: 95 % of control
- T/C [3]: 98 % of control

Compound: ClCc1ccc2ccc3ccc(CCl)nc3c2n1
- T/C (dose: 60.0 mg/kg/injection, schedule: Q01DX005 (ip), vehicle: saline with Tween-80): 103 % of control
- T/C [18]: 100 % of control
- T/C (dose: 240.0 mg/kg/injection, schedule: Q01DX005 (ip), vehicle: saline with Tween-80): 104 % of control

Compound: CC(C)(C)N1CCOCN2CCCCC2CCN(C(C)(C)C)CCOCN2CCCCC2CC1 (stereo not drawn)
- T/C (dose: 50.0 mg/kg/injection, schedule: Q01DX005 (ip), vehicle: saline): 100 % of control
- T/C (dose: 100.0 mg/kg/injection, schedule: Q01DX005 (ip), vehicle: saline): 99 % of control
- T/C (dose: 200.0 mg/kg/injection, schedule: Q01DX005 (ip), vehicle: saline): 100 % of control

Compound: C[Si](C)(C)C1OC1[Si](C)(C)C (stereo not drawn)
- T/C (dose: 50.0 mg/kg/injection, schedule: Q04DX002 (ip), vehicle: other): 103 % of control
- T/C (dose: 100.0 mg/kg/injection, schedule: Q04DX002 (ip), vehicle: other): 105 % of control
- T/C (dose: 200.0 mg/kg/injection, schedule: Q04DX002 (ip), vehicle: other): 108 % of control
